Experimental data taken from article PMC5903475, “Food-Derived Hemorphins Cross Intestinal and Blood–Brain Barriers In Vitro” (Frontiers in Endocrinology, 2018).
Where a SMILES comes first, the peptide text is derived from it. Where no end group is shown, it is not given here.

Experiments:
[1] = test system: Caco-2/TC7 cell barrier (human intestinal barrier model); conditions: for Passage of the intact peptide across the Caco-2 monolayer / Time of first appearance of the intact peptide in the basal compartment: 5 mM apical; for Passage of the intact peptide across the Caco-2 monolayer: basal samples 5-120 min, MRM; for Intact peptide or fragments present in the apical compartment, intestinal barrier / Intact peptide or fragments present in the basal compartment, intestinal barrier: peptide applied apically at 5 mM, end of the 120 min passage test, LC-MS/MS
Description: For the experiment, they were seeded at the density of 60 × 10^3 cells cm^−2 into cell culture inserts in 6-well culture plates and grown for 21 days.
The day of the trans-intestinal transport test, growth media were removed, and cells were first rinsed with the transport medium, HBSS-Hepes buffer supplemented with CaCl2 (2.5 mM final) and MgCl2 (0.5 mM final) in the apical (1 mL) and basolateral chambers (2.5 mL), then pre-incubated for 30 min with the transport medium. All incubations were performed at 37°C, 10% CO2 atmosphere. To control the integrity of the Caco-2/TC7 cell barrier, the paracellular transport marker lucifer yellow (LY, 100 µM final) was applied apically into each well and its transport into the basolateral chamber was monitored by spectrofluorescence. Each hemorphin was diluted for a final concentration of 5 mM in transport medium-LY and applied to the apical chamber at t0. In parallel, control wells were incubated with transport medium-LY only and all conditions were tested in triplicate. At t5, 15, 30, and 60 min, 100 µL samples were collected in the basal chamber and replaced by the same volume of transport medium. At t120 min, all remaining media in basal and apical chambers were collected and all samples were stored at −80°C. The rate of LY transport was determined by fluorescence readings (ex 485/em 530 nm) at each time point on the spectrofluorometer Safas Xenius XC (Safas Monaco, Monaco, France) and calculating the apparent permeability coefficient (Papp) as follows: (ΔQ/Δt) × (Vb/(A × C0)), where ΔQ is the change in LY concentration in the basal chamber (μM); Δt is the transport duration (s); Vb is the volume in the basal chamber (mL); A is the surface area of the insert/transwell membrane (cm^2); and C0 is the initial concentration of LY applied to the apical chamber (μM).
LC-MS/MS analysis was performed on a UFLC-XR device (Shimadzu, Kyoto, Japan) coupled to a QTRAP® 5500 MS/MS hybrid system triple quadrupole/linear ion trap mass spectrometer (AB Sciex, Foster City, CA, USA) equipped with a Turbo VTM ion source. Instrument control, data acquisition, and processing were performed using Analyst 1.5.2 software. The reverse phase liquid chromatography separation was carried out on a Kromasil C18 column (100 × 2.1 mm, 3.5 µm) with guard cartridge from AIT-France (Houilles, France). The injection volume was 2 µL. Elution was performed at a flow rate of 200 µL min^−1 with water-formic acid 0.1% as eluent A and acetonitrile-formic acid 0.1% as eluent B. The injection duty cycle was 10 min, starting with a 1 min plateau with 25% B, followed by a linear gradient from 25 B to 60% B in 4 min, a 1 min plateau with 60% B, 1 min linear gradient from 60 to 25% B, and 3 min at 25% B to recondition the column. MS analysis was carried out in positive ionization mode. The ion source parameters were optimized and set as follows: ion spray voltage, 5,500 V; nebulizer gas (air) and curtain gas (nitrogen) flows, 50 and 25 psi, respectively; source temperature, 550°C with the auxiliary gas flow (air) set at 50 psi; declustering potential (DP), 100 V; and collision cell exit potential, 25 V. The mass spectrometer was operated at a unit resolution for both Q1 and Q3 with a dwell time of 90 ms in each transition.
The presence of each intact hemorphin and potential fragments were tracked by a combination of multiple reaction monitoring (MRM) and pseudo-MRM transitions.

[2] = background statement, no reference printed for it; cited from earlier work
[3] = test system: FK-induced intracellular cAMP in Caco-2 cells; test: cAMP determination assay in forskolin-stimulated Caco-2 cells; assay type: cell-based, human; conditions: 1 µM alone, 15 min
Description: For the cAMP determination assay and the gene expression study, the cell line used was the Caco-2 cell line purchased from Sigma-Aldrich (Steinheim, Germany). Cells were grown at 37°C, 5% CO2 atmosphere in Dulbecco’s modified Eagle’s Medium (DMEM, 4.5 g L^−1 glucose) supplemented with 10% FBS, 2 mM L-glutamine, 100 U mL^−1 penicillin, and 100 µg mL^−1 streptomycin (complete DMEM) until use. Caco-2 from passages 34–37 were used. For the transport studies, the cell lines used and the culture protocols conditions are described in detail in dedicated subsections below.
The effect of the five opioid peptides/hemorphins on the cAMP production was assessed in vitro in Caco-2 cells. Each hemorphin was applied on Caco-2 cells stimulated or not by FK, an activator of the cAMP pathway, in order to evaluate the ability of the peptides to decrease intracellular cAMP elevation induced by FK. […] At the end of the 15 min incubation, cells were immediately rinsed three times with PBS and plates were stored at −80°C until intracellular cAMP levels determination with the Mouse/Rat cAMP Parameter Assay Kit according to the manufacturer’s guidelines. cAMP levels were normalized by the total protein concentration determined by the Pierce BCA Protein Assay Kit for each sample and expressed as a percentage of the reference condition FK only.

[4] = test system: mu- and kappa-transfected CHO-cells; parameters: method as in Fukuda et al. 45; conditions: ref Fukuda et al. 45; cited from earlier work
[5] = test system: BLEC blood-brain barrier model; conditions: hemorphin 100 µM apical; Dunnett's post hoc
Description: (§1) The day of the transport test, the same procedure as for the intestinal passage assay was applied except that the transwell inserts were transferred to a new 12-well culture plate at each time point, 30, 60, 90, and 120 min. All incubations were performed at 37°C, 5% CO2 atmosphere with slight agitations. The transport medium consisted in Ringer-Hepes solution (150 mM NaCl, 5.2 mM KCl, 2.2 mM CaCl2, 0.2 mM MgCl2⋅6H2O, 6 mM NaHCO3, 5 mM HEPES, pH 7.4). […] A test was performed without cells to insure that the filter membrane was not preventing the passage of the peptides.

physchem = conditions: pH 7.4
[6] = test system: brain-like endothelial cells (BLEC) co-cultured with bovine brain pericytes (human BBB model); conditions: peptide applied apically at 100 µM; table footnote says end of 120 min test, Figure 4 says 30 min
Description: The brain-like endothelial cell model has previously been described in detail ([28]). All the sample donors had given their written informed consent, in compliance with French legislation and the 2013 version of the Declaration of Helsinki. The sample collection was approved by the local investigational review board (Bethune Maternity Hospital Béthune, France). Briefly, this human model consists in isolating CD34+ cells from umbilical cord blood. These cells are then cultured in endothelial cell medium supplemented with 20% FCS for 15–20 days. After this period, cells are differentiated into endothelial cells. After a trypsinization step, they are seeded on matrigel coated-transwell inserts in 12-well culture plates, and subsequently cultured with brain pericytes, isolated from bovine brain capillaries. After 6 days of co-culture, human endothelial cells acquire the BBB phenotype, and are then named BLECs.
as §1
The injection volume was 2 µL.

Caco-2/TC7 cell barrier = conditions: LY 100 µM with hemorphin 5 mM apical
Description: The day of the trans-intestinal transport test, growth media were removed, and cells were first rinsed with the transport medium, HBSS-Hepes buffer supplemented with CaCl2 (2.5 mM final) and MgCl2 (0.5 mM final) in the apical (1 mL) and basolateral chambers (2.5 mL), then pre-incubated for 30 min with the transport medium. All incubations were performed at 37°C, 10% CO2 atmosphere. To control the integrity of the Caco-2/TC7 cell barrier, the paracellular transport marker lucifer yellow (LY, 100 µM final) was applied apically into each well and its transport into the basolateral chamber was monitored by spectrofluorescence. Each hemorphin was diluted for a final concentration of 5 mM in transport medium-LY and applied to the apical chamber at t0. […] The rate of LY transport was determined by fluorescence readings (ex 485/em 530 nm) at each time point on the spectrofluorometer Safas Xenius XC (Safas Monaco, Monaco, France) and calculating the apparent permeability coefficient (Papp) as follows: (ΔQ/Δt) × (Vb/(A × C0)), where ΔQ is the change in LY concentration in the basal chamber (μM); Δt is the transport duration (s); Vb is the volume in the basal chamber (mL); A is the surface area of the insert/transwell membrane (cm^2); and C0 is the initial concentration of LY applied to the apical chamber (μM).

blood-brain barrier = conditions: 125I-H7; rats; cited from earlier work
caco-2 cell monolayer = test system: caco-2 cell monolayer; parameters: method as in PMID 18468445; conditions: cited from earlier work

Row | Compound | Intact peptide or fragments present in the basal compartment, BBB [6] | Passage of the intact peptide across the Caco-2 monolayer [1] | Time of first appearance of the intact peptide in the basal compartment ([1]; Caco-2 model) [min] | Intact peptide or fragments present in the apical compartment, intestinal barrier [1] | Intact peptide or fragments present in the basal compartment, intestinal barrier [1] | also measured
1 | C[C@@H](O)[C@H](NC(=O)[C@H](Cc1c[nH]c2ccccc12)NC(=O)[C@@H]1CCCN1C(=O)[C@@H](N)Cc1ccc(O)cc1)C(=O)O [H4, YPWT] (H-YPWT-OH) | – | – | – | – | – | Time of first identification of the fragment in basal samples ([1]; fragment released from hemorphins applied at 5 mM, Caco-2 model): 5 min; Stability in plasma [2]: very stable in plasma
2 | C=CCN1CC[C@]23c4c5ccc(O)c4O[C@H]2C(=O)CC[C@@]3(O)[C@H]1C5 [naloxone] | – | – | – | – | – | Intracellular cAMP, % of FK levels [3]: 68.42 ± 6.87%; Activity at opioid receptors in transfected CHO-cells [4]: partial agonist activity
3 | LLVVYPWT [LLVV-H4, LLVV-YPWT] | H4, VV-H4, LVV-H4, LLVV-H4 | not detected | – | – | – | Papp(LY) compared to control, BBB model [5]: 133.2 ± 16.44%; solubility (physchem): > 50 µM; Papp(LY) compared to control, intestinal barrier model (Caco-2/TC7 cell barrier): decreased compared to control (non-significant)
4 | LVVYPWT [LVV-H4, LVV-YPWT] | H4, VV-H4, LVV-H4 | clearly able to cross intact the cell monolayer | 60 | LVV-H4, VV-H4, H4 | H4, VV-H4, LVV-H4 | –
5 | VVYPWT [VV-H4, VV-YPWT] | H4, VV-H4 | clearly able to cross intact the cell monolayer | 60 | VV-H4, H4 | H4, VV-H4 | Papp(LY) compared to control, BBB model [5]: 142.2 ± 26.71%
6 | VVYPWTQRF [VV-H7, VV-YPWTQRF] | H4, VV-H7, VV-H4, H7, H3, H5 | found in traces | – | VV-H7, VV-H4, H7, H6 | H4, VV-H7, H7, H3 | Papp(LY) compared to control, intestinal barrier model (Caco-2/TC7 cell barrier): decreased compared to control (non-significant)
7 | YPWTQRF [H7, YPWTQRF] | – | clearly able to cross intact the cell monolayer | 5 | – | – | Time to BBB passage after intra-femoral artery injection (blood-brain barrier): ≤ 15 min
8 | endomorphine-1 | – | – | – | – | – | Permeability through a caco-2 cell monolayer (caco-2 cell monolayer): low permeability
